Measurements published in US20180220650A1, “PLANT GROWTH REGULATOR COMPOUNDS” (Syngenta Participations AG, priority 2015, published 2018).
Where two headings read alike, the source gives them in different places.

Columns and labels:
[1] = system: NK Falkone corn seeds; test: Corn seed germination under cold stress; assay type: in vivo; conditions: 15° C.
Protocol: The effect of compounds of Formula (I) on the germination of NK Falkone corn seeds under cold stress was evaluated as follows.
NK Falkone corn seeds were sorted by size using 2 sieves, one excluding very big seeds and the other with round holes of 8 to 9 mm diameter. The seeds retained by the latter sieve were used for the germination test.
The corn seeds were placed in 24 well plates (each plate was considered as one experimental unit or replicate). Germination was initiated by the addition of 250 μl of distilled water containing 0.5% DMSO per well as a mean for compound solubilization. 8 replicates (ie, 8 plates) were used for each treatment characterization. Plates were sealed using seal foil (Polyolefin Art. Nr. 900320) from HJ-BIOANALYTIK. All plates were placed horizontally on trolleys in a climatic chamber at 15° C. or 23° C. in complete darkness. The experiment was laid out in a completely randomized design in climatic chamber with 75% Relative Humidity. Foils were pierced, one hole per well using a syringe after 72 hours for experiments performed at 15° C. and after 24 hours for experiments performed at 23° C.
Germination was followed over time by taking photographs at different time points. Image analysis was performed automatically with a macro which was developed using the Image J software. A dynamic analysis of germination was carried out by fitting a logistic curve. Three parameters were calculated from the logistic curve: the T50; the slope and the plateau. All three parameters have a high agronomical relevance and are key requirements to ensure a good early crop-establishment. The T50, slope and plateau for a selection of compounds are outlined in Table 2 below. All the values are expressed as percentages compared to an untreated control. All the three parameters are calculated considering 8 replicates and the kinetic parameters are separately determined for each germination curve. Data in bold indicate germination enhancing statistically significant differences between treated seeds and untreated control (p<0.05). • T50 corresponds to the time needed for half of the seed population to germinate. Higher negative %-values indicate faster germination. • Slope indicates how synchronous the germination of the seed population is. Positive values indicate steeper curve. The steeper the curve, the better and more uniform the germination is. • Plateau provides information about the final germination rate and it is expressed in percentage.
Positive values indicate a larger number of seeds germinated in a given period.

[2] = Soil stability assay (Stein clay loam soil); assay type: physicochemical; conditions: for Soil Stability (t1/2, hours): Stein soil:sand 1:1, 0.3 μg per gram of soil, dark, 20° C.
Description: It is highly desirable that agrochemicals applied to soil in order to deliver a beneficial biological effect can exist in the soil for a prolonged period of time with minimal degradation. However, a biologically active agrochemical compound may undergo chemical transformation in soil, leading to decreased levels of activity and a decrease in a desired biological effect. Simple laboratory degradation studies can be used to evaluate the disappearance due to biotic and abiotic processes of a compound in soil. The time taken for a compound to degrade in soil allows the estimation of their half-life (t1/2), which corresponds to the time in which 50% of the compound under evaluation is degraded in soil. […] Stock standard solutions were prepared by dissolving 1 mg of each test compound (ie, compounds (Ib-1, Ib-19 and AB01) in acetonitrile. The stock standard solutions were stored at 6° C. Working standard solutions were then obtained by a series of dilutions of the stock standard solutions for an external calibration. A treatment solution of 100 μg/mL concentration for each test compound was prepared in acetonitrile:water (6:4)(v:v). Soil samples used for this soil stability assay were collected at the Syngenta Research Centre location in Stein (Switzerland). The soil was classified as clay loam soil. Certain physical properties of the soil are described in Table 4. 2 mm sieved Stein soil was mixed with sand at ratio 1:1 prior to starting the laboratory soil degradation experiment. 10 g of the sand-soil mix (air-dried basis) was weighed into 50 ml Corning® polypropylene centrifuge tubes and soil moisture was adjusted at 45% of the field capacity. Chemical application was performed by applying 30 μl of a 100 μg/mL solution of each test compound to 10 g soil vessel corresponding to a final concentration of 0.3 μg test compound per gram of soil. Three replicates were considered for each test compound. Treated tubes were incubated in the dark at 20° C.±0.5 with 85% relative humidity. For the estimation of half-life, different sampling times of 0, 4, 8, 24, 72, 168 and 336 hours were considered. […] The half-lives were calculated by an exponential regression analysis (single first order kinetic model) plotting the percentage of recovered compound in soil against the time. […] After centrifugation at 3500 rpm for 5 minutes, an aliquot of the supernatant was collected and analyzed via UPLC-MS (Waters Acquity UPLC-MS PDA-Detection: 254 nm- and SQD-Zspray ESI, APCI, ESCi®-; Waters Acquity UPLC Column HSS T3 2.1×30 mm-1.8 μm; Gradient mobile phase with H2O:MeOH (9:1, v:v)+0.1% HCOOH (solvent A) and MeCN+0.1% HCOOH (solvent B); 30% to 100% of solvent B in 1 min, then 100% of solvent B for 0.45 min and then down to 30% solvent B at 1.5 min.; flow rate 0.75 mL·min−1).

[3] = Hydrolytic stability assay; assay type: physicochemical; conditions: for half-life: aqueous buffer with acetonitrile co-solvent, 40° C., read-out: Hydrolytic Stability (t1/2, hours) (converted); for loss of test compound (definitive half-life could not be determined): pH7
Protocol: The objective of the hydrolytic stability assay was to determine the chemical stability of the individual test compounds in a strictly controlled and reproducible environment allowing a comparison of their in-vitro stability under aqueous conditions at pH7 and 9. Due to low solubility of these analogues, a percentage of acentonitrile is added to the system to aid solubility (nominally 10-50%). Prior to conducting the individual assays, 1000 ppm stock solutions of all four test compounds were prepared in methanol. The reagents used in the assays were prepared as follows: 20 mM buffer solution: A stock of 20 mM mixed acetate, borate and phosphate buffer was prepared and the pH adjusted to 7 or 9 as required. Test solutions were prepared in LC vials for each test compound in the following manner: Mobile Phase Control: Mobile phase (1 ml)+compound (0.5-40 μl); Hydrolytic Stability: Buffer (1 ml)+compound (0.5-40 μl). The mobile phase and buffer were dispensed into separate glass LC vials, placed into a thermostatted autosampler set at 40° C., and allowed to equilibrate for 30 minutes prior to starting the individual assays. Reactions were initiated by addition of compound and monitored through a series of repeat injections made directly from the vial into an HPLC system at regular time intervals. Initial and subsequent measurements of peak area attributable to the test compound were used to fit exponential half-lives and calculate first-order rate constants. […] Consequently, the percent remaining was recorded at the last assessment time.

Soil Stability (t1/2, hours) [2]	half-life ([3]; pH 7 + 25% MeCN)	half-life ([3]; pH 9 + 25% MeCN)	loss of test compound (definitive half-life could not be determined) [3]	Structure (SMILES)	Plateau (% vs control) ([1]; rate 0.04 μM)	Slope (% vs control) ([1]; rate 0.04 μM)	T50 (% vs control) ([1]; rate 0.04 μM)	Plateau (% vs control) ([1]; rate 0.2 μM)	Slope (% vs control) ([1]; rate 0.2 μM)	T50 (% vs control) ([1]; rate 0.2 μM)	Plateau (% vs control) ([1]; rate 1 μM)	Slope (% vs control) ([1]; rate 1 μM)	T50 (% vs control) ([1]; rate 1 μM)	Plateau (% vs control) ([1]; rate 5 μM)	Slope (% vs control) ([1]; rate 5 μM)	T50 (% vs control) ([1]; rate 5 μM)	further results
38 h	> 17.6 h	3 h	insufficient loss was observed	CC1=CC(O/C=C2/C(=O)O[C@]3(C)CC[C@H]4C(C)(C)CCC[C@]4(C)[C@@H]23)OC1=O (stereo partly shown) [AB01]	−2.20 % vs control	6.50 % vs control	−1.80 % vs control	−2.20 % vs control	10.00 % vs control	0.50 % vs control	3.00 % vs control	27.50 % vs control	−2.30 % vs control	1.30 % vs control	16.50 % vs control	−1.90 % vs control	
				CC1=C[C@H](O/C=C2/C(=O)O[C@@H]3c4ccccc4C[C@H]23)OC1=O [GR-24]													Plateau (% vs control) ([1]; rate 0.08 μM, final germination rate): 2.10 % vs control; Slope (% vs control) ([1]; rate 0.08 μM, synchrony of germination): −8.50 % vs control; T50 (% vs control) ([1]; rate 0.08 μM, time for half of seeds to germinate): −0.10 % vs control; Plateau (% vs control) ([1]; rate 0.4 μM): 0.90 % vs control; Slope (% vs control) ([1]; rate 0.4 μM): 0.20 % vs control; T50 (% vs control) ([1]; rate 0.4 μM): −1.80 % vs control; Plateau (% vs control) ([1]; rate 2 μM): −1.40 % vs control; Slope (% vs control) ([1]; rate 2 μM): −0.80 % vs control; T50 (% vs control) ([1]; rate 2 μM): −0.50 % vs control; Plateau (% vs control) ([1]; rate 10 μM): 1.50 % vs control; Slope (% vs control) ([1]; rate 10 μM): 7.40 % vs control; T50 (% vs control) ([1]; rate 10 μM): −2.40 % vs control
>720 h	> 18.1 h	> 17.8 h		CC1=C(C)C(O/C=C2/C(=O)O[C@]3(C)CC[C@H]4C(C)(C)CCC[C@]4(C)[C@@H]23)N(c2ccccc2)C1=O (stereo partly shown) [Ib-1]													
280 h	> 17.6 h	19.4 h	insufficient loss was observed	CC1=C(C)C(O/C=C2/C(=O)O[C@]3(C)CC[C@H]4C(C)(C)CCC[C@]4(C)[C@@H]23)OC1=O (stereo partly shown) [Ib-19]	7.10 % vs control	13.60 % vs control	−1.10 % vs control	−4.60 % vs control	11.40 % vs control	−3.20 % vs control	3.00 % vs control	7.60 % vs control	0.20 % vs control	8.30 % vs control	24.20 % vs control	−2.80 % vs control	soil stability compared to prior art compound AB01 ([2]; Stein soil): superior soil stability; hydrolytic stability compared to the prior art compound ([3]; pH9): superior hydrolytic stability
